Reference: patent US8710246B2, “Substituted thiophene pentamers” (Biochromix Newco AB, priority 2008, dated 2014)
“Also recorded” adds a separate entry of the source.

Legend:
[1] = test system: hAPPSL transgenic mice; assay: 30 days treatment, Morris Water Maze (MWM) test; type: in vivo; conditions: 10 mg/kg, ip 30 days, treatment days 24 to 27
Protocol: (§1) Starting at 8 months of age, female hAPPSL mice were treated with vehicle only or p-FTAA in 3 dosages for 30 days. The Test Item (T.I.) p-FTAA was administered in 3 dosages in Vehicle. 48 hAPP Tg mice plus 4 reserves allocated to 4 different treatment groups were treated with either vehicle only (control) or with p-FTAA in dosages of 0.1 mg/kg/day, 1 mg/kg/day, or 10 mg/kg/day. As an additional control, 12 nTg littermates of the hAPPSL mice (plus 1 reserve) were treated with vehicle only. Vehicle and T.I.s were administered twice daily intra peritoneal (i.p.) for 30 days.
The MWM was performed during 4 days at the end of treatment period (treatment days 24 to 27). […]
The escape latency (the time needed to find the hidden platform and therefore to escape from the water), the swimming path (the length to reach the target), the swimming speed and in the probe trial crossings over the former platform position and the abidance in the target quadrant were evaluated. […]
Descriptive statistical analysis was performed on all evaluated parameters. […] Group differences were calculated by a parametric ANOVA followed by a Bonferroni post test or by a non-parametric Kruskal Wallis ANOVA followed by a Dunn's post test if Gaussian distribution was missing. Learning curves were evaluated by a Two-way ANOVA followed by a Bonferroni post test. […]

[2] = test system: amyloid plaques; assay: 30 days treatment, plaque load by 6E10 IHC and ThioflavinS staining; type: in vivo, mice; conditions: for hippocampal plaque load compared to vehicle: t-test
Protocol: as §1
Following blood sampling, mice were transcardially perfused with physiological (0.9%) saline. The brains were removed from the skull and the cerebellum was cut off, immediately frozen on dry ice and stored at −80° C. The remaining brain was hemisected and the left hemisphere was weighed, immediately frozen on dry ice and stored at −80° C. until A13 analysis. The right hemisphere was fixed with paraformaldehyde as described in section 4.3.1.
The right hemispheres of all Tg mice were fixed by immersion in freshly prepared 4% paraformaldehyde/PBS (pH 7.4) for one hour at room temperature. Thereafter brains were transferred to a 15% sucrose PBS solution for 24 hours to ensure cryoprotection. On the next day, brains were frozen in isopentane and stored at −80° C. until used for histological analysis.
From 6 animals per Tg group, 15 cryo-sections per layer (altogether 5 layers), each 10 μm thick (Leica CM 3050S) were sagittally cut. Brain levels were chosen according to the morphology atlas “The Mouse Brain” from Paxinos and Franklin (2nd edition). The cutting of the five levels started with a random slice corresponding to FIG. 105 (total appearance of the dentate gyrus), then sampling was continued uniformly and systematically, always retaining 15 slices per level in series and discarding 100 μm in between the levels.
Plaque load was quantified by staining with 6E10 IHC directed against AA1-17 of the human amyloid peptide and ThioflavinS staining against beta-sheet structures in a double incubation. Tissues of all investigated animals were handled uniformly.
Descriptive statistical analysis was performed on all evaluated parameters. Data were represented as mean±standard error of mean (SEM). Outliers were detected by Grubbs' test and were excluded from statistical analyses.
Values of the five single measurements (one from each cut level) per animal were integrated to one value per animal (individual mean). Group means were calculated with these integrated values. After Kolmogorov Smirnov normality distribution tests differences were calculated by a parametric ANOVA followed by a Newman Keuls multiple comparison post-hoc test or by a non-parametric Kruskal Wallis ANOVA followed by a Dunn's Multiple comparison test, if Gaussian distribution was missing.

## O=C(O)Cc1cc(-c2ccc(C(=O)O)s2)sc1-c1ccc(-c2sc(-c3ccc(C(=O)O)s3)cc2CC(=O)O)s1 [Compound F]
[1]
  MWM performance in terms of the swimming path: better performance than any other Tg group
[2]; 1 mg/kg, hippocampus
  decrease in plaque area: 40%
[2]; 1 mg/kg/day, ThioflavinS, listed as p-FTAA
  hippocampal plaque load compared to vehicle: Statistical significance; also recorded: significantly lower plaque load
[2]; 10 mg/kg/day, ThioflavinS, listed as p-FTAA
  hippocampal plaque load compared to vehicle: Statistical significance; also recorded: significantly lower plaque load
[2]; 0.1, 1, 10 mg/kg/day, ThioflavinS, listed as p-FTAA
  plaque load in the cortex: without significant changes; also recorded: comparable among groups
[2]; 6E10 IHC
  reduction of diffuse 6E10 IR surrounding the plaque-cores, dose of strongest effect: strongest for the 10 mg/kg p-FTAA treatment
[2]; ThioflavinS
  effect on beta-sheet cores, dose of strongest effect: strongest effect on beta-sheet cores was observed for the 1 mg/kg p-FTAA treatment
[2]; mainly hippocampus, 6E10 IHC and ThioflavinS
  plaque load, overall effect of treatment: reduction of plaque load
